Reference: the supplement of paper PMC8882468

What was measured:
Test in all cases: CTG-3D luminescence at 96 h relative to day-0 seeding control (ratio to day 0); higher = more growth / less cytotoxicity; PDxO 3D drug screen, 96 h, CTG-3D normalised to day-0 seeding control.
[1] = test system: HCI-017.E2 (organoid from an ER-positive breast cancer xenograft)
[2] = test system: HCI-002 (organoid from a triple-negative breast cancer xenograft)
[3] = test system: HCI-015 (organoid from a triple-negative breast cancer xenograft)
[4] = test system: MDA-MB-231
[5] = test system: HCI-023 (organoid from a triple-negative breast cancer xenograft)
[6] = test system: HCI-025 (organoid from a breast cancer xenograft)

CN(Cc1cnc2nc(N)nc(N)c2n1)c1ccc(C(=O)N[C@@H](CCC(=O)O)C(=O)O)cc1 [methotrexate]
CTG-3D luminescence at 96 h
Conditions | 12.5 pM | 0.00025 µM | 0.005 µM | 0.1 µM | 1 µM | 10 µM | 100 µM | 625 fM
[1] | 2.07 | 2.19 | 2.14 | 2 | 2.22 | 2.19 | 2.15 | 2.05
[4] | 4.34 | 4.29 | 4.44 | 4.37 | 2.63 | 2.29 | 2.66 | 4.36

CTG-3D luminescence at 96 h
Conditions | 12.5 pM | 0.00025 µM | 0.005 µM | 0.1 µM | 1 µM | 10 µM | 100 µM | 625 fM
[1], days in culture: 85 | 2.97 | 2.49 | 2.7 | 2.26 | 2.43 | 2.05 | 2.13 | 2.34
[2], days in culture: 62 | 2.96 | 2.69 | 2.51 | 2.07 | 1.87 | 1.98 | 1.41 | 3
[2], days in culture: 82 | 2.95 | 3.08 | 2.15 | 2.74 | 2.21 | 2.01 | 1.45 | 2.71
[2], days in culture: 91 | 3.87 | 3.77 | 3.65 | 2.64 | 2.19 | 2.11 | 1.68 | 4.28
[2], days in culture: 191 | 2.61 | 2.61 | 2.29 | 1.61 | 1.57 | 1.54 | 1.33 | 2.53
[2], days in culture: 209 | 2.46 | 2.21 | 2.31 | 1.84 | 1.59 | 1.28 | 1.33 | 2.57
[2], days in culture: 227 | 6.13 | 6.3 | 5.89 | 6.23 | 5.35 | 5.18 | 4.27 | 6.94
[3], days in culture: 172 | 2.51 | 2.28 | 2.36 | 1.31 | 1.55 | 1.13 | 1.06 | 2.55
[3], days in culture: 191 | 1.94 | 1.41 | 1.62 | 1.1 | 1.23 | 0.977 | 0.939 | 1.36
[3], days in culture: 218 | 1.75 | 1.57 | 1.63 | 1.69 | 1.48 | 1.63 | 1.21 | 1.79
[5], days in culture: 111 | 1.59 | 1.42 | 1.18 | 1.07 | 0.83 | 0.957 | 0.655 | 1.51
[5], days in culture: 128 | 1.68 | 1.51 | 1.5 | 1.84 | 1.37 | 1.77 | 1.22 | 1.62
[6], days in culture: 172 | 2.75 | 2.07 | 3.51 | 1.47 | 1.98 | 1.22 | 1.02 | 2.55
[6], days in culture: 209 | 1.86 | 1.56 | 2.06 | 0.982 | 1.3 | 0.947 | 0.76 | 1.49
[6], days in culture: 218 | 1.83 | 2 | 2 | 1.06 | 0.978 | 1.26 | 0.754 | 1.76

C=CCn1c(=O)c2cnc(Nc3ccc(N4CCN(C)CC4)cc3)nc2n1-c1cccc(C(C)(C)O)n1 [adavosertib]
CTG-3D luminescence at 96 h
Conditions | 12.5 pM | 0.00025 µM | 0.005 µM | 0.1 µM | 1 µM | 10 µM | 100 µM | 625 fM
[1] | 1.84 | 2.24 | 2.2 | 2.13 | 1.78 | 1.28 | 1.51 | 2.15
[4] | 4.36 | 4.34 | 4.48 | 4.31 | 3.06 | 1.05 | 1.27 | 4.41

CTG-3D luminescence at 96 h
Conditions | 12.5 pM | 0.00025 µM | 0.005 µM | 0.1 µM | 1 µM | 10 µM | 100 µM | 625 fM
[1], days in culture: 85 | 3.02 | 3.07 | 2.89 | 2.57 | 2.45 | 1.09 | 1.58 | 2.77
[2], days in culture: 62 | 3.1 | 2.91 | 2.73 | 2.4 | 1.32 | 0.225 | 0.324 | 2.86
[2], days in culture: 82 | 2.82 | 2.68 | 2.02 | 2.52 | 1.53 | 0.198 | 0.134 | 2.69
[2], days in culture: 91 | 3.69 | 3.67 | 3.79 | 3.35 | 1.82 | 0.274 | 0.495 | 4.31
[2], days in culture: 191 | 2.59 | 2.7 | 2.5 | 2.3 | 1.76 | 0.247 | 0.507 | 2.47
[2], days in culture: 209 | 2.27 | 2.42 | 2.11 | 1.89 | 1.5 | 0.217 | 0.128 | 2.35
[2], days in culture: 227 | 6.7 | 6.34 | 6.07 | 6.24 | 2.13 | 0.312 | 0.123 | 6.55
[3], days in culture: 172 | 2.15 | 2.15 | 2.3 | 1.04 | 1.39 | 0.498 | 0.139 | 2.33
[3], days in culture: 191 | 2.26 | 1.49 | 1.67 | 0.981 | 0.612 | 0.246 | 0.0546 | 1.6
[3], days in culture: 218 | 1.97 | 1.76 | 1.56 | 1.43 | 0.699 | 0.252 | 0.0554 | 1.82
[5], days in culture: 111 | 1.63 | 1.12 | 1.18 | 1.1 | 0.554 | 0.112 | 0.0325 | 1.39
[5], days in culture: 128 | 1.68 | 1.92 | 1.34 | 1.47 | 0.441 | 0.148 | 0.06302 | 1.85
[6], days in culture: 172 | 2.76 | 1.83 | 3.85 | 2 | 1.8 | 0.188 | 0.128 | 1.79
[6], days in culture: 209 | 1.68 | 1.93 | 1.69 | 1.36 | 1.03 | 0.124 | 0.157 | 2.05
[6], days in culture: 218 | 1.7 | 1.86 | 1.94 | 1.75 | 1.05 | 0.215 | 0.0695 | 1.86

CC(C)(C(=O)NCC(F)(F)C(F)(F)F)C(=O)N[C@@H]1C(=O)Nc2ccccc2-c2ccccc21
CTG-3D luminescence at 96 h
Conditions | 12.5 pM | 0.00025 µM | 0.005 µM | 0.1 µM | 1 µM | 10 µM | 100 µM | 625 fM
[1] | 1.84 | 2.1 | 2.09 | 2.12 | 2.04 | 1.78 | 1.23 | 2.06
[4] | 4.58 | 4.53 | 4.6 | 4.48 | 4.6 | 4.7 | 4.04 | 4.6

CTG-3D luminescence at 96 h
Conditions | 12.5 pM | 0.00025 µM | 0.005 µM | 0.1 µM | 1 µM | 10 µM | 100 µM | 625 fM
[1], days in culture: 85 | 2.5 | 2.8 | 2.42 | 1.44 | 1.19 | 1.24 | 1.25 | 2.29
[2], days in culture: 62 | 2.81 | 2.3 | 2.94 | 2.74 | 2.12 | 3.01 | 2.47 | 2.63
[2], days in culture: 82 | 3.56 | 2.71 | 2.34 | 2.94 | 2.61 | 3.03 | 1.34 | 3.05
[2], days in culture: 91 | 4.71 | 3.94 | 3.16 | 3.91 | 2.99 | 3.51 | 2.15 | 4.61
[2], days in culture: 191 | 2.82 | 2.44 | 2.45 | 2.13 | 2.48 | 2.26 | 1.81 | 2.66
[2], days in culture: 209 | 2.45 | 2.57 | 2.38 | 2.22 | 2.25 | 1.91 | 1.55 | 2.4
[2], days in culture: 227 | 5.87 | 5.33 | 5.89 | 5.45 | 4.95 | 5.63 | 2.44 | 6.16
[3], days in culture: 172 | 1.79 | 0.907 | 1.41 | 0.52 | 0.649 | 0.927 | 0.996 | 1.66
[3], days in culture: 191 | 2.23 | 0.752 | 0.752 | 0.54 | 0.523 | 0.502 | 0.509 | 1.89
[3], days in culture: 218 | 1.79 | 1.02 | 1.03 | 0.889 | 0.743 | 0.516 | 0.649 | 1.97
[5], days in culture: 111 | 1.36 | 1.08 | 0.961 | 0.975 | 0.945 | 1.09 | 0.672 | 1.53
[5], days in culture: 128 | 1.61 | 1.47 | 1.06 | 1.27 | 1.17 | 1.65 | 0.804 | 1.64
[6], days in culture: 172 | 2.02 | 2.24 | 3.81 | 2.44 | 2.2 | 2.06 | 0.839 | 2.75
[6], days in culture: 209 | 1.5 | 1.73 | 1.93 | 1.61 | 1.83 | 2.01 | 0.831 | 1.47
[6], days in culture: 218 | 2.02 | 1.91 | 1.95 | 1.42 | 1.45 | 2.15 | 1.22 | 2.19
